The nature of the data set: Pharmacokinetic study in rats after single oral dose. The note with it: male, Sprague-Dawley, rat, in vivo, 50 mg/kg, intragastric gavage, single dose 50 mg Coenzyme Q10/Kg, suspended in 1% carboxymethyl cellulose, plasma. As to the method: Pharmacokinetic parameters (Tmax, Cmax, absolute bioavailability) were determined in rats after the oral administration of a single dose of Coenzyme Q10 as crystalline powder and as solid dispersion with phospholipids.
Male Sprague-Dawley rats, weighting 300-350 g were used for the pharmacokinetic experiment. Rats were fasted 16 hours before administration with free access to water.
Coenzyme Q10 as crystalline powder and as solid dispersion with phospholipids were suspended in 1% carboxymethyl cellulose water suspension and administered by intragastric gavage as a single dose of 50 mg of Coenzyme Q10/Kg.
Blood samples were collected from tail vein after 0.5-1.0-2.0-4.0-8.0-12.0 and 24 hours after administration.
Plasma was obtained from blood samples by centrifugation at 5.000×g for 15 minutes and kept frozen (−20° C.) until analysis. After protein sedimentation, Coenzyme Q10 was extracted by plasma samples with n-hexane; the extraction step with hexane was repeated for three times. The hexane phases, separated by centrifugation, were collected and the solvent was removed by evaporation under nitrogen. The residue was dissolved in 2-propanol for HPLC/MS analysis at 275 nm, using internal standard method for Coenzyme Q10 quantification.
The following pharmacokinetic parameters were calculated: […]

`COC1=C(OC)C(=O)C(C/C=C(\C)CC/C=C(\C)CC/C=C(\C)CC/C=C(\C)CC/C=C(\C)CC/C=C(\C)CC/C=C(\C)CC/C=C(\C)CC/C=C(\C)CCC=C(C)C)=C(C)C1=O` [Crystalline Coenzyme Q10, Coenzyme Q10]: the highest level (Cmax) was 230 ng/mL and the Tmax turned out to be 3.8 h. Also, the AUC(0-t) (0-24 hours) amounted to 4100 ng·h/mL.

As a reminder, the Cmax is the peak of the concentration-time curve. As usually defined, the Tmax is the time at which the peak concentration occurs. The AUC(0-t) is exposure summed from dosing to a finite time, without extrapolation to infinity. A low value points to low exposure.

Values taken from patent publication US10905657B2, “Solid dispersions of Coenzyme Q10” (Indena S.P.A., priority 2015, dated 2021).
